Measured values as given in US8003630B2, “Combinatorial therapies for the treatment of neoplasias using the opioid growth factor receptor” (The Penn State Research Foundation, priority 2004, dated 2011).

Tests used:
MiaPaCa-2 cells [1] = experiment: Growth curves of MiaPaCa-2 cells, cell proliferation (MTT) assay, absorbency; settings: MiaPaCa-2, 5-FU 10^-5 M and/or OGF 10^−6 M
Source text: Cells were counted using a standard MTT assay. In general, each data point represents the average absorbency taken from 10 wells/treatment; error bars represent the S.E.M.

MiaPaCa-2 cells [2] = experiment: OGF/gemcitabine treatment in athymic nude mouse model (Example 5); type: in vivo, athymic nude mice
Source text: To examine the effectiveness of the combined OGF/gemcitabine treatments in vivo, an athymic nude mouse model was used.

MiaPaCa-2 cells [3] = experiment: Gemcitabine and OGF cell cycle phase analysis by flow cytometry; type: cell-based, human; settings: 2 to 24 hours after OGF exposure
Procedure: To investigate the exact cell cycle phase where gemcitabine and/or OGF exerted their effects, flow cytometry was performed.

Substance: [Met^5]-enkephalin [OGF]
- decrease in cell number from controls (MiaPaCa-2 cells [1]; 24 h): 7.1%
- decrease in cell number from controls (MiaPaCa-2 cells [1]; 48 h): 7.0%
- decrease in cell number from controls (MiaPaCa-2 cells [1]; 72 h): 6.9%
- decrease in cell number from controls (MiaPaCa-2 cells [1]; 96 h): 14.2%
- mice with tumors (MiaPaCa-2 cells [2]; day 16 after tumor cell inoculation): all mice
- tumors smaller than control mice, reduction (MiaPaCa-2 cells [2]; from the 6th timepoint (12th day of measurable tumor)): 29.9-40.7%
- increase of cells in the G0/G1 phase of the cell cycle (MiaPaCa-2 cells [3]): no significant increases into the G0/G1 phase
